Biological target: T1, Acetylcholinesterase (Rattus norvegicus) (UniProt P37136)
T1 sequence (whole entry): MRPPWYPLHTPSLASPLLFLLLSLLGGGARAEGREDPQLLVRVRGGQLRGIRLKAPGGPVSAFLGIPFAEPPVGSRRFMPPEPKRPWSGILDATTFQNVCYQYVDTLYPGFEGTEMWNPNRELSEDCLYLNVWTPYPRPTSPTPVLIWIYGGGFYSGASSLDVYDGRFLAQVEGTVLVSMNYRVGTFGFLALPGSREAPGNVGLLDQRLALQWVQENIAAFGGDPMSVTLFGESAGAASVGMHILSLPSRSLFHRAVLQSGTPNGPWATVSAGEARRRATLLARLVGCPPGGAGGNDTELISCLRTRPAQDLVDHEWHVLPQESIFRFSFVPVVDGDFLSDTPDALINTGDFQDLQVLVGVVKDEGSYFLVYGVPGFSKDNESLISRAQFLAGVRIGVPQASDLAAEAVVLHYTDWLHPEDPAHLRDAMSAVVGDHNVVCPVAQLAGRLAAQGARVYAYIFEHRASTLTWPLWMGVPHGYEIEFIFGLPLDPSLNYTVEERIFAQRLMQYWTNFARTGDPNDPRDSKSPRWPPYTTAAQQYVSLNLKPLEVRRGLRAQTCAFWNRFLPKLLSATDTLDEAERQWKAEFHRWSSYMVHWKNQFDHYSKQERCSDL
Assay: Inhibitory activity against AChE from rat brain homogenate
Assay type: functional
Conditions: concentration not given here

SMILES: CCOP(=S)(OCC)Oc1nc(Cl)c(Cl)cc1Cl
- inhibition: 95%

— ChEMBL document CHEMBL1149443, “Synthesis of the novel series of bispyridinium compounds bearing (E)-but-2-ene linker and evaluation of their reactivation activity against chlorpyrifos-inhibited acetylcholinesterase” (Bioorg Med Chem Lett, 2006)
